Results published in patent US20100119479A1, “THERAPEUTIC ANTIVIRAL PEPTIDES” (INTERMUNE, INC., priority 2008, published 2010).

How the values were obtained:
[1] = test system: HCV sub-genomic replicon, GS4.3 (HuH-7 hepatoma cells); test: Quantitation by ELISA of NPTII in the HCV sub-genomic replicon, GS4.3; format: cell-based; settings: Hepatitis C virus, GS4.3 replicon cells, 72 h incubation
Description: Quantitation by ELISA of the Selectable Marker Protein, Neomycin Phosphotransferase II (NPTII) in the HCV Sub-Genomic Replicon, GS4.3
The HCV sub-genomic replicon (1377/NS3-3′, accession No. AJ242652), stably maintained in HuH-7 hepatoma cells, was created by Lohmann et al. Science 285: 110-113 (1999). The replicon-containing cell culture, designated GS4.3, was obtained from Dr. Christoph Seeger of the Institute for Cancer Research, Fox Chase Cancer Center, Philadelphia, Pa.
GS4.3 cells were maintained at 37° C., 5% CO2, in DMEM (Gibco 11965-092) supplemented with L-glutamine 200 mM (100×) (Gibco25030-081), non-essential amino acids (NEAA)(Biowhittaker 13-114E), heat-inactivated (HI) Fetal Bovine Serum(FBS)(Hyclone SH3007.03) and 750 μg/mL geneticin (G418)(Gibco 10131-035). Cells were sub-divided 1:3 or 4 every 2-3 days.
24 h prior to the assay, GS4.3 cells were collected, counted, and plated in 96-well plates (Costar 3585) at 7500 cells/well in […] standard maintenance medium (above) and incubated in the conditions above. To initiate the assay, culture medium was removed, cells were washed once with PBS (Gibco 10010-023) and 90 μl Assay Medium (DMEM, L-glutamine, NEAA, 10% HI FBS, no G418) was added. Inhibitors were made as a 10× stock in Assay Medium, (3-fold dilutions from 10 μM to […] final concentration, final DMSO concentration 1%), […] were added to duplicate wells, plates were rocked to mix, and incubated as above for 72 h.
An NPTII Elisa kit was obtained from AGDIA, Inc. (Compound direct ELISA test system for Neomycin Phosphotransferase II, PSP 73000/4800). Manufacturer's instructions were followed, with some modifications. 10×PEB-1 lysis buffer was made up to include 500 μM PMSF (Sigma P7626, 50 mM stock in isopropanol). After 72 h incubation, cells were washed once with PBS and […] PEB-1 with PMSF was added per well. Plates were agitated vigorously for 15 minutes, room temperature, then frozen at −70° C. Plates were thawed, lysates were mixed thoroughly, and 100 μl were applied to an NPTII Elisa plate. A standard curve was made. Lysate from DMSO-treated control cells was pooled, serially diluted with PEB-1 with PMSF, and applied to duplicate wells of the ELISA plate, in a range of initial lysate amount of 150 μL-2.5 μL. In addition, 100 μL buffer alone was applied in duplicate as a blank. Plates were sealed and gently agitated at room temperature for 2 h. Following capture incubation, the plates were washed 5×300 μL with PBS-T (0.5% Tween-20, PBS-T was supplied in the ELISA kit). For detection, a 1× dilution of enzyme conjugate diluent MRS-2 (5×) was made in PBS-T, into which 1:100 dilutions of enzyme conjugates A and B were added, as per instructions. Plates were resealed, and incubated with agitation, covered, room temperature, for 2 h. The washing was then repeated and 100 μL, of room temperature TMB substrate was added. After approximately 30 minutes incubation (room temperature, agitation, covered), the reaction was stopped with 50 μL, 3M sulfuric acid. Plates were read at 450 nm on a Molecular Devices Versamax plate reader.
Inhibitor effect was expressed as a percentage of DMSO-treated control signal, and inhibition curves were calculated using a 4-parameter equation: y=A+((B−A)/(1+((C/x)̂D))), where C is half-maximal activity or EC50.

[2] = target: T1, full-length NS3/NS4A-2 (HCV NS3 protease) (Hepatitis C virus genotype 1b, UniProt Q9WMX2); test: NS3 Inhibition Assay (NS3-NS4 protease assay, RETS1 substrate); format: biochemical; settings: NS3/NS4A-2 protease
T1 construct: Recombinant E. coli or Baculovirus full-length NS3; host or cells: E. coli or baculovirus (BV) expression
T1 sequence (Q9WMX2 1027-1657): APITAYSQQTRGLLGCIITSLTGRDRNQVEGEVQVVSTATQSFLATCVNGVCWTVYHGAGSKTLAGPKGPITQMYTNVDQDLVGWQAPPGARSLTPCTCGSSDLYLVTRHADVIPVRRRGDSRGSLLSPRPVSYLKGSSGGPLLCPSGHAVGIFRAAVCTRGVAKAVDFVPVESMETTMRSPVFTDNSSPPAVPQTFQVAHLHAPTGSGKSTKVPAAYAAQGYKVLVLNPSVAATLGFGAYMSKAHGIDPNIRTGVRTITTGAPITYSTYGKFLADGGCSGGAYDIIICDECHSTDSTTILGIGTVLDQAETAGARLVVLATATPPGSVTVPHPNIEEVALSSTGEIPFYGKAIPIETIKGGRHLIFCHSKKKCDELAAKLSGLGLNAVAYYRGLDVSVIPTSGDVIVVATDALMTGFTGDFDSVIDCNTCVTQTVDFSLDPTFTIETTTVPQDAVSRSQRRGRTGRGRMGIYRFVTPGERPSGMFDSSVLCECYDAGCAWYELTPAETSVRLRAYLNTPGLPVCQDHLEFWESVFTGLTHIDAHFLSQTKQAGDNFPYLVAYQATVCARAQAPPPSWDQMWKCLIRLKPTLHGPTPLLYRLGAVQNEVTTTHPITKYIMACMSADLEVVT
T1 sequence (Q9WMX2 1658-1711): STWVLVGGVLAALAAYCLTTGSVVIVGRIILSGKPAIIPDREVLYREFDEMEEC
Experimental: NS3 Complex Formation with NS4A-2.
Recombinant E. coli or Baculovirus full-length NS3 was diluted to 3.33 μM with assay buffer and transferred material to an eppendorf tube and placed in a water bath in a 4° C. refrigerator. The appropriate amount of NS4A-2 diluted to […] in assay buffer was added to equal the volume of NS3 above (conversion factor—3.8 mg/272 μL assay buffer). The material was transferred to an eppendorf tube and placed in water bath in a 4° C. refrigerator.
After equilibration to 4° C., equal volumes of NS3 and NS4A-2 solutions were combined in an eppendorf tube, mix gently with a manual pipettor, and incubate mixture for 15 minutes in the 4° C. water bath. Final concentrations in the mixture are 1.67 μM NS3, 4.15 mM NS4A-2 (2485-fold molar excess NS4A-2).
After 15 minutes at 4° C., the NS3/NS4A-2 eppendorf tube was removed and place it in a room temperature water bath for 10 minutes. NS3/NS4A-2 was aliquoted at appropriate volumes and store at −80° C. (E. coli NS3 run at 2 nM in assay, aliquot at 25 μL. BV NS3 run at 3 nM in assay, aliquot at 30 μL).
Step a. Sample compounds were dissolved to 10 mM in DMSO then diluted to 2.5 mM (1:4) in DMSO. Typically, compounds were added to an assay plate at 2.5 mM concentration, yielding upon dilution a starting concentration of 50 microM in the assay inhibition curve. Compounds were serial diluted in assay buffer to provide test solutions at lower concentrations.
Step b. The E. coli. NS3/NS4A-2 was diluted to 4 nM NS3 (1:417.5 of 1.67 μM stock−18 μL1.67 μM stock+7497 μL assay buffer). The BV NS3/NS4A-2 was diluted to 6 nM NS3 (1:278.3 of 1.67 μM stock−24 μL1.67 μM stock+6655 μL assay buffer).
Step c. Using the manual multichannel pipettor, and being careful not to introduce bubbles into the plate, 50 μL assay buffer were added to wells A01-H01 of a black Costar 96-well polypropylene storage plate.
Step d. Using the manual multichannel pipettor, and being careful not to introduce bubbles into the plate, 50 μL of diluted NS3/NS4A-2 from Step b were added to wells A02-H12 of the plate in Step c.
Step e. Using the manual multichannel pipettor, and being careful not to introduce bubbles into the plate, 25 μL of the wells in drug dilution plate in Step a were transferred to corresponding wells in assay plate in Step d. The tips on the multichannel pipettor were changed for each row of compounds transferred.
Step f Using the manual multichannel pipettor, and being careful not to introduce bubbles into the plate, the contentes of the wells from the assay plate in Step e were mixed by aspirating and dispensing 35 μL of the 75 μL in each well five times. The tips on multichannel pipettor were changed for each row of wells mixed.
Step g. The plate was covered with a polystyrene plate lid, and the plate from Step f containing NS3 protease and sample compounds was pre-incubated 10 minutes at room temperature.
While plate from Step g is pre-incubating, the RETS1 substrate was diluted in a 15 mL polypropylene centrifuge tube. The RETS1 substrate was diluted to 8 μM (1:80.75 of 646 μM stock—65 μL 646 μM stock+5184 μL assay buffer).
After the plate in Step g was done pre-incubating, and using the manual multichannel, 25 μL of substrate were added to all wells on the plate. The contents of the wells of the plate were quickly mixed, as in Step f, mixing 65 μL of the 100 μL in the wells.
The plate was read in kinetic mode on the Molecular Devices SpectraMax Gemini XS plate reader. Reader settings: Read time: 30 minutes, Interval: 36 seconds, Reads: 51, Excitation λ: 335 nm, Emission λ: 495 nm, cutoff: 475 nm, Automix: off, Calibrate: once, PMT: high, Reads/well: 6, Vmax pts: 21 or 28/51 depending on length of linearity of reaction
IC50s are determined using a four parameter curve fit equation, and converted to Ki's using the following Km's: […]
Full-length E. coli NS3−2.03 μM
Full-length BV NS3−1.74 μM
where Ki=IC50/(1+[S]/Km))

| SMILES | EC50 [1] | IC50 [2] |
| --- | --- | --- |
| C=C[C@@H]1C[C@]1(NC(=O)[C@@H]1C[C@@H](OC(=O)N2Cc3cccc(F)c3C2)CN1C(=O)[C@@H](Nc1cc(F)cc(C(F)(F)F)c1)C(C)(C)C)C(=O)NS(=O)(=O)C1(C)CC1 [Compound 288] | < 100 nM | < 100 nM |
| CC[C@@H]1C[C@]1(NC(=O)[C@@H]1C[C@@H](OC(=O)N2Cc3cccc(F)c3C2)CN1C(=O)[C@@H](Nc1cccc(OC(F)(F)F)c1)C(C)(C)C)C(=O)NS(=O)(=O)C1(C)CC1 [Compound 289] | < 100 nM | < 100 nM |
| CC[C@@H]1C[C@]1(NC(=O)[C@@H]1C[C@@H](OC(=O)N2Cc3cccc(F)c3C2)CN1C(=O)[C@@H](Nc1cccc(C(F)(F)F)c1)C(C)(C)C)C(=O)NS(=O)(=O)C1(C)CC1 [Compound 290] | < 100 nM | < 100 nM |
| CC[C@@H]1C[C@]1(NC(=O)[C@@H]1C[C@@H](OC(=O)N2Cc3ccc(OC)cc3C2)CN1C(=O)[C@@H](Nc1cc(F)cc(C(F)(F)F)c1)C(C)(C)C)C(=O)NS(=O)(=O)C1(C)CC1 [Compound 291] | < 100 nM | < 100 nM |
| CC(C)(C)[C@H](Nc1cc(F)cc(C(F)(F)F)c1)C(=O)N1C[C@H](OC(=O)N2Cc3cccc(Cl)c3C2)C[C@H]1C(=O)N[C@]1(C(=O)NS(=O)(=O)C2CC2)C[C@H]1C1CC1 [Compound 292] | < 100 nM | < 100 nM |
| CC(C)(C)[C@H](Nc1cccc(C(F)(F)F)c1)C(=O)N1C[C@H](OC(=O)N2Cc3cccc(Cl)c3C2)C[C@H]1C(=O)N[C@]1(C(=O)NS(=O)(=O)C2CC2)C[C@H]1C1CC1 [Compound 293] | < 100 nM | < 100 nM |
| CC(C)(C)[C@H](Nc1ccc(F)c(C(F)(F)F)c1)C(=O)N1C[C@H](OC(=O)N2Cc3cccc(Cl)c3C2)C[C@H]1C(=O)N[C@]1(C(=O)NS(=O)(=O)C2CC2)C[C@H]1C1CC1 [Compound 294] | < 100 nM | < 100 nM |
| CC[C@@H]1C[C@]1(NC(=O)[C@@H]1C[C@@H](Oc2cc(-c3nc(C(C)C)cs3)nc3c(C)c(OC)ccc23)CN1C(=O)[C@@H](Nc1cccc(C(F)(F)F)c1)C(C)(C)C)C(=O)NS(=O)(=O)N(C)C [Compound 297] | < 100 nM | < 100 nM |
| CC(C)(C)[C@H](Nc1cc(F)cc(C(F)(F)F)c1)C(=O)N1C[C@H](OC(=O)N2Cc3cccc(Cl)c3C2)C[C@H]1C(=O)N[C@]1(C(=O)NS(=O)(=O)C2(C)CC2)C[C@H]1C1CC1 [Compound 298] | < 100 nM | < 100 nM |
| CC[C@@H]1C[C@]1(NC(=O)[C@@H]1C[C@@H](Oc2cc(-c3nc(C(C)C)cs3)nc3c(C)c(OC)ccc23)CN1C(=O)[C@@H](Nc1ccc(C(F)(F)F)cc1)C(C)(C)C)C(=O)NS(=O)(=O)C1(C)CC1 [Compound 299] | < 100 nM | < 100 nM |
| CC[C@@H]1C[C@]1(NC(=O)[C@@H]1C[C@@H](Oc2cc(-c3nc(C(C)C)cs3)nc3c(C)c(OC)ccc23)CN1C(=O)[C@@H](Nc1ccc(F)c(C(F)(F)F)c1)C(C)(C)C)C(=O)NS(=O)(=O)C1(C)CC1 [Compound 301] | < 100 nM | < 100 nM |
| C=C[C@@H]1C[C@]1(NC(=O)[C@@H]1C[C@@H](Oc2cc(-c3nc(C(C)C)cs3)nc3c(C)c(OC)ccc23)CN1C(=O)[C@@H](Nc1cccc(C(F)(F)F)c1)C(C)(C)C)C(=O)NS(=O)(=O)C1(C)CC1 [Compound 302] | < 100 nM | < 100 nM |
| CC(C)(C)[C@H](Nc1cccc(C(F)(F)F)c1)C(=O)N1C[C@H](OC(=O)N2Cc3cccc(Cl)c3C2)C[C@H]1C(=O)N[C@]1(C(=O)NS(=O)(=O)C2(C)CC2)C[C@H]1C1CC1 [Compound 303] | < 100 nM | < 100 nM |
| CC(C)(C)[C@H](Nc1cccc(OC(F)(F)F)c1)C(=O)N1C[C@H](OC(=O)N2Cc3cccc(Cl)c3C2)C[C@H]1C(=O)N[C@]1(C(=O)NS(=O)(=O)C2(C)CC2)C[C@H]1C1CC1 [Compound 304] | < 100 nM | < 100 nM |
| C=C[C@@H]1C[C@]1(NC(=O)[C@@H]1C[C@@H](Oc2cc(-c3nc(C(C)C)cs3)nc3c(C)c(OC)ccc23)CN1C(=O)[C@@H](Nc1ccc(F)c(C(F)(F)F)c1)C(C)(C)C)C(=O)NS(=O)(=O)C1(C)CC1 [Compound 305] | < 100 nM | < 100 nM |
| C=C[C@@H]1C[C@]1(NC(=O)[C@@H]1C[C@@H](Oc2cc(-c3nc(C(C)C)cs3)nc3c(C)c(OC)ccc23)CN1C(=O)[C@@H](Nc1ccc(F)c(C(F)(F)F)c1)C(C)(C)C)C(=O)NS(=O)(=O)C1CC1 [Compound 306] | < 100 nM | < 100 nM |
| C=C[C@@H]1C[C@]1(NC(=O)[C@@H]1C[C@@H](Oc2cc(-c3nc(C(C)C)cs3)nc3c(C)c(OC)ccc23)CN1C(=O)[C@@H](Nc1cc(F)cc(C(F)(F)F)c1)C(C)(C)C)C(=O)NS(=O)(=O)N(C)C [Compound 307] | < 100 nM | < 100 nM |
